Read-outs that look alike come from different tables or passages of the source.
Columns and labels:
pooled normal plasma [1] = test: aPTT clotting assay; assay type: biochemical, human; settings: metal ion with NTA-lipids (100 μM lipid)
Procedure: (§1) The modified aPTT reagent contained varying concentrations of the indicated metal salts, NTA-lipids (100 μM lipid), 0.08% (w/v) sodium azide, and 16 mM Hepes buffer, pH 7.4.
aPTT assays were performed with modified aPTT reagents containing varying concentrations of NiSO4, CoCl2, CuSO4, ZnCl2, FeSO4, CdCl2, CrCl2, AgNO3 or MnCl2 in the presence of NTA-lipids (FIG. 12C). […] Co^2+ and Zn^2+ some activity (see FIG. 12C). […] Ni^2+ performed substantially better in this assay than did Cu^2+.
aPTT clotting assay—aPTT clotting assays were also carried out in a model ST4 coagulometer (Diagnostica Stago). The aPTT assays were performed by pipetting 50 μl of an aPTT reagent and 50 μl pooled normal plasma into a coagulometer cuvette and incubating the mixture for 3 min at 37° C. 50 μl prewarmed 25 mM CaCl2 was then pipetted into the cuvette and the time to clot formation was recorded.

pooled normal plasma [2] = test: PT clotting assay with modified thromboplastin reagents; assay type: biochemical, human; settings: for Concentration of TF that yields a 50 sec. clot time: His-tagged sTF with Ni-NTA-DOGS/PCPSPE (SUV with 10 mol % Ni-NTA-DOGS), rTF with PCPS
Procedure: Thromboplastin reagents containing TF and phospholipids were prepared and diluted to various concentrations of TF. The diluted thromboplastin reagents were then used in the PT assay (FIG. 4). The four modified thromboplastin reagents were made as follows: 1. 100 ng/ml rTF relipidated in PCPS vesicles (30 μM), 2. […] The thromboplastin reagents were diluted in TA (50 mM Tris-HCl buffer, pH 7.5, 0.1% bovine serum albumin, 0.1% NaN3) to varying concentrations of TF.
as §1
Thromboplastin reagents—To prepare a conventional thromboplastin reagent, rTF was relipidated into phospholipid vesicles composed of 20 mol % PS, 80 mol % PC (rTF/PCPS) at a 8700:1 molar ratio of phospholipid to rTF as described. rTF/PCPS preparations were then diluted to the desired final rTF concentration in TBSA (50 mM Tris-HCl buffer, pH 7.5, 100 mM NaCl, 0.1% bovine serum albumin, 0.1% NaN3).
(§2) PT clotting assay—PT assays were performed in a model ST4 coagulometer (Diagnostica Stago) by pipetting 50 μl of 25 mM CaCl2 and 50 μl diluted thromboplastin reagent into a coagulometer cuvette and allowing the mixture to warm to 37° C. for 2 min. Clotting was then initiated by pipetting 50 μl pre-warmed, pooled normal plasma into the cuvette and the time to clot formation recorded.

X activation by VIIa = target: T1, X activation by VIIa (Homo sapiens, UniProt P08709); test: Factor X activation using liposomes; assay type: biochemical; settings: sTF-5AA-(His)6 with PCPS liposomes, or sTF with NiPCPS liposomes
T1 construct: VIIa or factor VIIa means coagulation factor VIIa (active enzyme); purchased American Diagnostica
Procedure: A stringent test of TF:VIIa function is its ability to support the activation of its natural protein substrate, X. This requires that TF be incorporated into a suitable phospholipid membrane (i.e., one containing negatively charged phospholipids). […] The ability of various forms of TF to support the activation of X was compared under equivalent concentrations of enzyme (500 pM VIIa), cofactor (4 pM TF) and liposomes (50 μM total lipid).
Factor X activation using liposomes. […] At varying times, 20 μl aliquots were removed into a 96-well plate containing 100 μl Stop Buffer 1 (40 mM Mes-NaOH pH 5.8, 12 mM EDTA, 50 mM NaCl, 0.25% Triton X-100, 0.1% NaN3, 0.012% Antifoam C) at 4° C. After warming the stopped reactions to room temperature, Xa was detected by adding 60 μl of 1.5 mM Spectrozyme Xa in HBSAC plus 0.6 M Tricine-NaOH, pH 8.4 and quantifying change in A405. Amounts of Xa generated were determined by comparison to a standard curve with purified Xa.

VIIa [3] = target: T2, VIIa (Homo sapiens, UniProt P08709); test: Kd for VIIa binding to TF (X activation rate as readout)
T2 construct: VIIa or factor VIIa means coagulation factor VIIa (active enzyme); purchased American Diagnostica
T2 sequence (P08709 61-212): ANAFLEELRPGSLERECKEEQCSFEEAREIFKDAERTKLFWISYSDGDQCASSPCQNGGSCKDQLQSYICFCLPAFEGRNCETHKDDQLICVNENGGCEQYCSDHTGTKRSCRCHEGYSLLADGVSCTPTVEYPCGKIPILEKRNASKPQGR
T2 sequence (P08709 213-466): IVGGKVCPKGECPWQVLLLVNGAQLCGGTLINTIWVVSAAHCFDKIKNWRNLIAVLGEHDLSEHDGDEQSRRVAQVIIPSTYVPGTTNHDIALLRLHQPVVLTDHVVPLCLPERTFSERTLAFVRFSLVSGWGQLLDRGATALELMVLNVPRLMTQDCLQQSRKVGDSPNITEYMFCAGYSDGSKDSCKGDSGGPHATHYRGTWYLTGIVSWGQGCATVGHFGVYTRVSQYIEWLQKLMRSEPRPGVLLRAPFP
Procedure: When VIIa binds to TF, its rate of X activation increases dramatically, so this can be used as a convenient readout for TF:VIIa complex formation. […] Therefore, when the isolated TF ectodomain was attached to the membrane surface via interaction with metal-chelating lipids, its VIIa binding ability was indistinguishable from membTF that spanned the lipid bilayer.
Measurement of the Kd for VIIa binding to TF—The binding affinity of VIIa for various forms of TF was measured using the TF-dependent increase in the rate of X activation as the readout for TF:VIIa complex formation. Activation of X by the TF:VIIa complex was measured by adapting the continuous chromogenic assay of Fiore et al.. Reaction mixtures containing Vila and either rTF/PCPS or sTF+SUVs were prepared in HBSAC. Reactions were initiated by adding a mixture of X and the chromogenic substrate, S-2222, in a flat bottom, 96-well plate. Change in A405 was monitored at ambient temperature in a VERSAmax microplate reader (Molecular Devices), sampling every 15 sec for 20 min. Initial rates of X activation were determined by fitting a second-order polynomial to the A405 data as described. The quadratic ligand binding equation was fit to the rate data as described to derive apparent Kd values for the binding of VIIa to TF. For experiments using relipidated rTF, typical reaction mixtures containing 0.25 μM VIIa and 20 nM X in HBSAC were incubated with increasing concentrations of rTF/PCPS.

[4] = test system: pooled normal human plasma; test: Clotting assay with immobilized lipids; assay type: biochemical; settings: 200 nmol dried NiPCPSPE per well; 4800 nM
Procedure: Mixtures of DOGS-NTA-Ni and phospholipids were dried-down in the wells of a polystyrene coagulometer cuvette, the cuvettes were washed to remove any non-immobilized lipid, and then sTF-5AA-(His)6 was added to the wells. Clotting tests were subsequently conducted by adding calcium ions and plasma to wells. […] Control experiments were conducted using other lipid compositions, which were all dried down onto the cuvette well at a single amount of lipid per well (200 nmol).
Clotting assay with immobilized lipids—Lipid mixtures in chloroform were first dried down in a borosilicate glass test tube under a gentle stream of dry nitrogen gas to remove the solvent, after which the dried lipids were redissolved in n-hexane at a total lipid concentration of 0.3 to 5.3 mM. Complete lipid mixtures were termed NiPCPSPE and consisted of 10% DOGS-NTA-Ni, 12.5% PS, 30% PE, and 47.5% PC. […]
Each well of an ST4 cuvette received 150 μl of lipid solution in hexane (containing 50 to 800 nmol total lipid per well). […] A 50 μl aliquot of 25 mM CaCl2 was added per well and the cuvettes were incubated for 2 min at 37° C., after which a 50 μl aliquot of pre-warmed (37° C.) pooled normal human plasma was added and the time to clot formation was measured.

VIIa [5] = target: T3, VIIa (Homo sapiens, UniProt P08709); test: Allosteric activation of VIIa (chromogenic assay); assay type: biochemical; settings: compared to sTF and rTF/PCPS; data not shown
T3 construct: VIIa or factor VIIa means coagulation factor VIIa (active enzyme); purchased American Diagnostica
Procedure: Measurement of Allosteric Activation of VIIa—The ability of TF to allosterically activate factor VIIa was carried out measuring the enzymatic activity of factor VIIa by a chromogenic assay. […] The reaction was initiated by the addition of the chromogenic substrate, Chromozym® t-PA (ChtPA) in a flat bottom, 96-well plate. […] Change in A405 was monitored at ambient temperature in a VERSAmax microplate reader (Molecular Devices), reading every 30 seconds for 20 minutes.

factor-deficient plasmas = test: PT assay with factor-deficient plasmas; assay type: biochemical, human; settings: 3 μg/ml sTF(His)6 with 100 μM 15% Ni-lipid, or commercial reagent
Description: A major goal was to create a soluble form of TF that can function as a thromboplastin reagent in the PT assays. […] This reagent was then compared in PT assays to a commercially available thromboplastin reagent, STA-Neoplastine CI Plus (Diagnostica Stago). Clotting times with the two reagents were compared using pooled normal plasma as well as a number of factor-deficient plasmas (FIG. 6). (The latter were deficient in factors V, VII, VIII, IX, X, XI, XII, prekallikrein (PK), or high molecular weight kininogen (HK)).
as §2

VIIa [6] = target: T2, VIIa; settings: rTF relipidated into PCPS vesicles; literature [4]; read-out: Kd for VIIa binding; cited from earlier work
[7] = ± SEM, sTF and rTF with PCPS, sTF-(His)6 with Ni-NTA-DOGS/PCPSPE (SUV with 15 mol % Ni-NTA-DOGS), read-out: Kd.app for VIIa binding

[Cl-].[Cl-].[Zn+2] [Zn^2+, ZnCl2]
activity in aPTT assay (pooled normal plasma [1]): some activity | activity in PT assay (pooled normal plasma [2]; metal ion with NTA-lipids (100 μM lipid), 30 ng/ml sTF-5AA-(His)6): some activity

O=S(=O)([O-])[O-].[Cu+2] [Cu^2+, CuSO4]
activity in aPTT assay (pooled normal plasma [1]): dramatically shortened the clotting time

O=S(=O)([O-])[O-].[Ni+2] [Ni^2+, NiSO4]
activity in aPTT assay (pooled normal plasma [1]): dramatically shortened the clotting time

[Cl-].[Cl-].[Co+2] [Co^2+, CoCl2]
activity in aPTT assay (pooled normal plasma [1]): some activity | PT clotting time shortened to (pooled normal plasma [2]; metal ion added to modified thromboplastin reagent, NTA-lipids, 30 ng/ml sTF-5AA-(His)6): less than 100 sec

sTF: soluble tissue factor, a truncated, soluble form of tissue factor that does not have the membrane-spanning domain nor the cytoplasmic domain [reference compound]
rates of X activation by VIIa, control combinations (X activation by VIIa): negligible rates of X activation | Kd (VIIa [3]; sTF, read-out: Kd for VIIa binding): 7 nM | clotting times compared with sTF-5AA-(His)6 [4]: much longer clotting times

sTF(His)6: oligohistidine-tagged sTF; replaces the final two amino acids of sTF with six histidine residues
ability to allosterically activate VIIa (VIIa [5]): able to fully allosterically activate VIIa | PT clotting times with plasmas deficient in factors V, VII or X (factor-deficient plasmas): prolonged clotting times | PT sensitivity to deficiencies in clotting factors of the intrinsic pathway (factors VIII, IX, XI, XII, PK, or HK) (factor-deficient plasmas): insensitive | Kd (VIIa [3]; read-out: Kd for VIIa binding to the his-tagged sTF variants, 15% Ni-lipid): 0.169 nM | Kd (VIIa [3]; [7]): 0.169 ± 0.015 nM | procoagulant activity compared with sTF (pooled normal plasma [2]; PT assay, 10% Ni-lipids): dramatically higher than sTF | Concentration of TF that yields a 50 sec. clot time (pooled normal plasma [2]; PT assay): 45 ng/mL

B1: rTF: recombinant, membrane-anchoring tissue factor; rTF/PCPS is rTF relipidated into 20 mol % PS, 80 mol % PC vesicles (protein, UniProt P13726 1-295, looked up)
chain: METPAWPRVPRPETAVARTLLLGWVFAQVAGASGTTNTVAAYNLTWKSTNFKTILEWEPKPVNQVYTVQISTKSGDWKSKCFYTTDTECDLTDEIVKDVKQTYLARVFSYPAGNVESTGSAGEPLYENSPEFTPYLETNLGQPTIQSFEQVGTKVNVTVEDERTLVRRNNTFLSLRDVFGKDLIYTLYYWKSSSSGKKTAKTNTNEFLIDVDKGENYCFSVQAVIPSRTVNRKSTDSPVECMGQEKGEFREIFYIIGAVVFVVIILVIILAISLHKCRKAGVGQSWKENSPLNVS
modifications: full-length relipidated in PS/PC vesicles
notes: recombinant, membrane-anchoring tissue factor; rTF/PCPS is rTF relipidated into 20 mol % PS, 80 mol % PC vesicles
affinity of VIIa for rTF/PCPS relative to sTF (VIIa [3]): approximately 100 fold | Kd (VIIa [3]; [7]): 0.04 ± 0.005 nM | Kd (VIIa [6]): < 0.05 nM | Concentration of TF that yields a 50 sec. clot time (pooled normal plasma [2]; PT assay): 0.7 ng/mL

— patent US20080260858A1, “Universal Procoagulant” (The Board of Trustees of the University of Illnois, priority 2005, published 2008)
